# Data taken from PubChem BioAssay AID2060336 (Molecular Pharmacology Branch, DTP, NCI, 2025).
# System: 958767-090-R-J1-PDC spheroid growth
# Assay: Anticancer human tumor 958767-090-R-J1-PDC patient-derived head and neck squamous carcinoma cell line growth inhibition [IpAb]
# Settings: spheroids with HUVEC and MSC; for IC50: curve of first compound; for viability, T/C: stronger effect = lower value
# How it was run: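 Multi-cell spheroids of 60% tumour cells, 25% HUVEC and 15% MSC in ultra-low-attachment U-bottom wells, treated with agents combined with ipatasertib or abemaciclib. Half-log ranges top out near clinical Cmax, or 10 microM when Cmax is unknown.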
# [1] = second compound 0.01 µM, first compound 0.00949 µM
# [2] = second compound 0.01 µM, first compound 0.03 µM
# [3] = second compound 0.01 µM, first compound 0.0949 µM
# [4] = second compound 0.01 µM, first compound 0.3 µM
# [5] = second compound 0.0316 µM, first compound 0.00949 µM
# [6] = second compound 0.0316 µM, first compound 0.03 µM
# [7] = second compound 0.0316 µM, first compound 0.0949 µM
# [8] = second compound 0.0316 µM, first compound 0.3 µM
# [9] = second compound 0.1 µM, first compound 0.00949 µM
# [10] = second compound 0.1 µM, first compound 0.03 µM
# [11] = second compound 0.1 µM, first compound 0.0949 µM
# [12] = second compound 0.1 µM, first compound 0.3 µM
# [13] = second compound 0.316 µM, first compound 0.00949 µM
# [14] = second compound 0.316 µM, first compound 0.03 µM
# [15] = second compound 0.316 µM, first compound 0.0949 µM
# [16] = second compound 0.316 µM, first compound 0.3 µM
# [17] = second compound 1 µM, first compound 0.00949 µM
# [18] = second compound 1 µM, first compound 0.03 µM
# [19] = second compound 1 µM, first compound 0.0949 µM
# [20] = second compound 1 µM, first compound 0.3 µM
# 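Also: spheroids exposed to agents for 7 days.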
# 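For viability, T/C in this document: 100% = DMSO vehicle control wells.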
structure (smiles),measurement,setting,value
CC(=O)c1c(C)c2cnc(Nc3ccc(N4CCNCC4)cn3)nc2n(C2CCCC2)c1=O + CCN1CCN(Cc2ccc(Nc3ncc(F)c(-c4cc(F)c5nc(C)n(C(C)C)c5c4)n3)nc2)CC1,IC50,second compound 0.01 µM,> 300 nM
same,IC50,second compound 0.0316 µM,> 300 nM
same,IC50,second compound 0.1 µM,137 nM
same,IC50,second compound 0.316 µM,265 nM
same,IC50,second compound 1 µM,> 300 nM
same,"viability, T/C","second compound 0.01 µM, first compound 0.000949 µM",80.7%
same,"viability, T/C","second compound 0.01 µM, first compound 0.003 µM",72.5%
same,"viability, T/C",[1],66.5%
same,"viability, T/C",[2],64.3%
same,"viability, T/C",[3],59.6%
same,"viability, T/C",[4],53.4%
same,"viability, T/C","second compound 0.0316 µM, first compound 0.000949 µM",73.8%
same,"viability, T/C","second compound 0.0316 µM, first compound 0.003 µM",75.5%
same,"viability, T/C",[5],54.2%
same,"viability, T/C",[6],53.8%
same,"viability, T/C",[7],56.5%
same,"viability, T/C",[8],49.7%
same,"viability, T/C","second compound 0.1 µM, first compound 0.000949 µM",61.5%
same,"viability, T/C","second compound 0.1 µM, first compound 0.003 µM",56.2%
same,"viability, T/C",[9],65.7%
same,"viability, T/C",[10],53.6%
same,"viability, T/C",[11],44.4%
same,"viability, T/C",[12],50.9%
same,"viability, T/C","second compound 0.316 µM, first compound 0.000949 µM",54.2%
same,"viability, T/C","second compound 0.316 µM, first compound 0.003 µM",50.7%
same,"viability, T/C",[13],57.2%
same,"viability, T/C",[14],52.9%
same,"viability, T/C",[15],51.1%
same,"viability, T/C",[16],47.9%
same,"viability, T/C","second compound 1 µM, first compound 0.000949 µM",65.2%
same,"viability, T/C","second compound 1 µM, first compound 0.003 µM",63.8%
same,"viability, T/C",[17],60.6%
same,"viability, T/C",[18],65.2%
same,"viability, T/C",[19],62.2%
same,"viability, T/C",[20],53.1%
CC(C)(C)c1cnc(CSc2cnc(NC(=O)C3CCNCC3)s2)o1 + CCN1CCN(Cc2ccc(Nc3ncc(F)c(-c4cc(F)c5nc(C)n(C(C)C)c5c4)n3)nc2)CC1,IC50,second compound 0.01 µM,144 nM
same,IC50,second compound 0.0316 µM,134 nM
same,IC50,second compound 0.1 µM,93.6 nM
same,IC50,second compound 0.316 µM,42.9 nM
same,IC50,second compound 1 µM,48.1 nM
same,"viability, T/C",[1],106%
same,"viability, T/C",[2],97.6%
same,"viability, T/C",[3],76.5%
same,"viability, T/C",[4],2.6%
same,"viability, T/C","second compound 0.01 µM, first compound 0.949 µM",2.82%
same,"viability, T/C","second compound 0.01 µM, first compound 3 µM",2.81%
same,"viability, T/C",[5],98.5%
same,"viability, T/C",[6],84.2%
same,"viability, T/C",[7],70.5%
same,"viability, T/C",[8],1.81%
same,"viability, T/C","second compound 0.0316 µM, first compound 0.949 µM",2.35%
same,"viability, T/C","second compound 0.0316 µM, first compound 3 µM",1.86%
same,"viability, T/C",[9],76.2%
same,"viability, T/C",[10],63.3%
same,"viability, T/C",[11],50.1%
same,"viability, T/C",[12],2.58%
same,"viability, T/C","second compound 0.1 µM, first compound 0.949 µM",1.95%
same,"viability, T/C","second compound 0.1 µM, first compound 3 µM",2.75%
same,"viability, T/C",[13],71.2%
same,"viability, T/C",[14],59.6%
same,"viability, T/C",[15],27.2%
same,"viability, T/C",[16],1.79%
same,"viability, T/C","second compound 0.316 µM, first compound 0.949 µM",3.55%
same,"viability, T/C","second compound 0.316 µM, first compound 3 µM",3.21%
same,"viability, T/C",[17],91.7%
same,"viability, T/C",[18],78.2%
same,"viability, T/C",[19],9.34%
same,"viability, T/C",[20],3.35%
same,"viability, T/C","second compound 1 µM, first compound 0.949 µM",3.92%
same,"viability, T/C","second compound 1 µM, first compound 3 µM",2.96%
Cn1nccc1Nc1nccc(-c2ccn(C(CO)c3ccc(Cl)c(F)c3)c(=O)c2)n1 (stereo not given) + CCN1CCN(Cc2ccc(Nc3ncc(F)c(-c4cc(F)c5nc(C)n(C(C)C)c5c4)n3)nc2)CC1,IC50,second compound 0.01 µM,1580 nM
same,IC50,second compound 0.0316 µM,1610 nM
same,IC50,second compound 0.1 µM,441 nM
same,IC50,second compound 0.316 µM,254 nM
same,IC50,second compound 1 µM,1020 nM
same,"viability, T/C","second compound 0.01 µM, first compound 0.0316 µM",72.3%
same,"viability, T/C","second compound 0.01 µM, first compound 0.1 µM",62.5%
same,"viability, T/C","second compound 0.01 µM, first compound 0.316 µM",61.3%
same,"viability, T/C","second compound 0.01 µM, first compound 1 µM",55.5%
same,"viability, T/C","second compound 0.01 µM, first compound 3.16 µM",43.8%
same,"viability, T/C","second compound 0.01 µM, first compound 10 µM",24.9%
same,"viability, T/C","second compound 0.0316 µM, first compound 0.0316 µM",69.3%
same,"viability, T/C","second compound 0.0316 µM, first compound 0.1 µM",60.3%
same,"viability, T/C","second compound 0.0316 µM, first compound 0.316 µM",53%
same,"viability, T/C","second compound 0.0316 µM, first compound 1 µM",55.2%
same,"viability, T/C","second compound 0.0316 µM, first compound 3.16 µM",46.8%
same,"viability, T/C","second compound 0.0316 µM, first compound 10 µM",17.1%
same,"viability, T/C","second compound 0.1 µM, first compound 0.0316 µM",63.3%
same,"viability, T/C","second compound 0.1 µM, first compound 0.1 µM",50.6%
same,"viability, T/C","second compound 0.1 µM, first compound 0.316 µM",51.5%
same,"viability, T/C","second compound 0.1 µM, first compound 1 µM",46.4%
same,"viability, T/C","second compound 0.1 µM, first compound 3.16 µM",36.8%
same,"viability, T/C","second compound 0.1 µM, first compound 10 µM",18.6%
same,"viability, T/C","second compound 0.316 µM, first compound 0.0316 µM",61.4%
same,"viability, T/C","second compound 0.316 µM, first compound 0.1 µM",50.5%
same,"viability, T/C","second compound 0.316 µM, first compound 0.316 µM",46.8%
same,"viability, T/C","second compound 0.316 µM, first compound 1 µM",47.7%
same,"viability, T/C","second compound 0.316 µM, first compound 3.16 µM",31.6%
same,"viability, T/C","second compound 0.316 µM, first compound 10 µM",23.2%
same,"viability, T/C","second compound 1 µM, first compound 0.0316 µM",71.1%
same,"viability, T/C","second compound 1 µM, first compound 0.1 µM",60.2%
same,"viability, T/C","second compound 1 µM, first compound 0.316 µM",60.2%
same,"viability, T/C","second compound 1 µM, first compound 1 µM",50.7%
same,"viability, T/C","second compound 1 µM, first compound 3.16 µM",38.8%
same,"viability, T/C","second compound 1 µM, first compound 10 µM",21.7%
